{"source": "patent US9623000B2", "about": "“Compositions and methods for treating inflammatory disorders” (priority 2008, dated 2017)", "type_in_all_cases": "in vivo, Mice/Balb/c", "key": {"[1]": {"system": "croton oil induced ear edema", "assay": "Croton oil induced ear swelling, 3 hours post sensitization (Example 1)", "settings": "Hydrocortisone 600 nmol/ear; for ear swelling (difference between the inflamed and intact ear thickness) / % of Ear Thickness Inhibition (inhibition of ear swelling/edema vs Vehicle): 3 hours post croton oil; for ear swelling (difference between the inflamed and intact ear thickness) / Mean Group Ear Swelling (mm) 3 Hours Post Croton Oil MEAN: PEA, CBD 5 mg/ml; for ear swelling (difference between the inflamed and intact ear thickness): MEAN±SEM; for % of Ear Thickness Inhibition (inhibition of ear swelling/edema vs Vehicle) / Mean Group Ear Swelling (mm) 3 Hours Post Croton Oil MEAN: topical 1 hour prior to and 2 hours post sensitization; for % of Ear Thickness Inhibition (inhibition of ear swelling/edema vs Vehicle): 2 mg/ml or 5 mg/ml (PEA, CBD); for Mean Group Ear Swelling (mm) 3 Hours Post Croton Oil MEAN: Amitriptyline, Topiramate, Moclobimide 2 mg/ml", "method": "A study was undertaken in order to evaluate the effect of topical preparations of various test items (TI) and TI combined with Croton oil on ear swelling. Ear thickness was measured before croton oil induced ear swelling and 3 hours post ear edema induction. The various TIs were applied topically 1 hour prior to ear edema sensitization and 2 hours post ear edema sensitization. The difference in ear thickness of the intact ear was subtracted from the ear thickness of the inflamed ear. This value is defined as “ear swelling”.\nSpecies/Strain: Mice/Balb/c\nPrior to sensitization animals were anesthetized. Ear thickness was measured 24 hours prior to croton oil sensitization; this measurement served as a baseline. On sensitization day, the animals were anesthetized using Ketamine and Xylazine formulation. Then, the animals were administered with TI topically. One hour later the animals were introduced to croton oil sensitization (50 μL). Two hours post croton oil sensitization the animals were administered with TI again. Three hours post croton oil sensitization the ear thickness of the animals were measured again.\nTIs were administered twice, the first dose was 1 hour prior to croton oil sensitization and the second time was 2 hours post croton oil sensitization. All TIs were dissolved in 10% Ethanol and were applied topically on the surface of the sensitized ear.\nDetermination of individual body weights of animals was made one day before sensitization phase. A single person was responsible for ear thickness measurement throughout the entire study. The ear thickness of both left and right ears was measured using analogue calipers (Instrumentation 0.01 mm L-01) on 2 occasions: 24 hours prior to croton oil sensitization, and 3 hours post croton oil sensitization.\nAll data are presented in MEAN±SEM. T-test, two tailed, unpaired was applied to all data. P value was considered significant if p<0.05.\nEar thickness was measured before Croton oil induced ear sensitization (baseline) and 3 hours post ear edema induction. Treatment with various TI was applied topically 1 hour prior to sensitization and 2 hours post induction. The difference in ear thickness of the intact ear was subtracted from the ear thickness measured of the inflamed ear. This value was referred to as ear swelling."}, "[2]": {"system": "croton oil induced ear edema", "assay": "Croton oil induced ear edema, 6 and 9 hours post sensitization (Example 3)", "settings": "PEA 1%; for activity in inhibiting ear swelling vs. Vehicle: Betamethasone 4 μg/25 μl per ear; for Mean Left Ear Delta Thickness, Delta + 9 h vs baseline / Mean Left Ear Delta thickness, Delta + 6 h vs baseline / Mean Left Ear Thickness (mm) Day 0 (6 h post sensitization) / Mean Left Ear Thickness (mm) Day 0 (9 h post sensitization): Betamethasone EDmax 4 μg/25 μl per ear; for Mean Left Ear Thickness (mm) Day 0 (6 h post sensitization) / Mean Left Ear Thickness (mm) Day 0 (9 h post sensitization): topical 25 μl per ear prior to sensitization", "method": "A study was undertaken in order to determine the effect of topical application of a combined preparation of Betamethasone and PEA on ear edema in mice. Ear thickness was measured before croton oil induced ear swelling and 6 and 9 hours post ear edema induction. […]\nThe difference in ear thickness of the intact ear was subtracted from the ear thickness of the inflamed ear. This value is defined as “ear swelling”."}, "[3]": {"system": "croton oil induced ear edema", "assay": "Croton oil induced ear edema, 6 hours post sensitization (Example 2)", "description": "A study was undertaken in order to evaluate the effect of topical preparations of Hydrocortisone, Betamethasone and PEA at various concentrations (as single agents and in various combinations) on ear edema in mice. […] The difference in ear thickness of the intact ear was subtracted from the ear thickness of the inflamed ear. This value is defined as “ear swelling”."}, "[4]": {"settings": "steroid alone at ED50: Hydrocortisone 55 μg/25 μl per ear, Betamethasone 1 μg/25 μl per ear"}, "[5]": {"settings": "steroid alone at EDmax: Hydrocortisone 200 μg/25 μl per ear, Betamethasone 4 μg/25 μl per ear"}, "[6]": {"settings": "topical, steroid alone at calculated ED50: Hydrocortisone 55 μg/25 μl per ear, Betamethasone 1 μg/25 μl per ear"}, "[7]": {"settings": "topical, steroid alone at calculated EDmax: Hydrocortisone 200 μg/25 μl per ear, Betamethasone 4 μg/25 μl per ear"}}, "note": "Where “and” joins values, the source holds several entries; their conditions need not be identical. Identical values can stand only once. Marks after values point to notes of the source that are not given here."}
{"smiles": "C=C(C)[C@@H]1CCC(C)=C[C@H]1c1c(O)cc(CCCCC)cc1O", "note": "[CBD, cannabidiol]", "values": [{"measurement": "ear swelling (difference between the inflamed and intact ear thickness)", "setting": "[1]", "result": "0.020±0.010", "unit": "mm"}, {"measurement": "% of Ear Thickness Inhibition (inhibition of ear swelling/edema vs Vehicle)", "setting": "[1]", "result": 72, "unit": "%"}, {"measurement": "Mean Group Ear Swelling (mm) 3 Hours Post Croton Oil MEAN", "setting": "[1]", "result": "0.240* mm"}]}
{"smiles": "CCCCCCCCCCCCCCCC(=O)NCCO", "note": "[PEA, N-(2-hydroxyethyl)hexadecanamide]", "values": [{"measurement": "activity in inhibiting ear swelling vs. Vehicle", "setting": "[2]; 6 hours post sensitization", "result": "significant activity"}, {"measurement": "activity in inhibiting ear swelling vs. Vehicle", "setting": "[2]; 9 hours post sensitization", "result": "not active"}, {"measurement": "Mean Left Ear Delta Thickness, Delta + 9 h vs baseline", "setting": "[2]", "result": 0.147}, {"measurement": "Mean Left Ear Delta thickness, Delta + 6 h vs baseline", "setting": "[2]", "result": "0.056*"}, {"measurement": "Mean Left Ear Thickness (mm) Day 0 (6 h post sensitization)", "setting": "[2]", "result": "0.30** mm"}, {"measurement": "Mean Left Ear Thickness (mm) Day 0 (9 h post sensitization)", "setting": "[2]", "result": 0.39, "unit": "mm"}, {"measurement": "ear swelling (difference between the inflamed and intact ear thickness)", "setting": "[1]", "result": "0.035±0.012", "unit": "mm"}, {"measurement": "% of Ear Thickness Inhibition (inhibition of ear swelling/edema vs Vehicle)", "setting": "[1]", "result": 52, "unit": "%"}, {"measurement": "Mean Group Ear Swelling (mm) 3 Hours Post Croton Oil MEAN", "setting": "[1]", "result": 0.268, "unit": "mm"}, {"measurement": "Mean Left Ear Delta thickness, Delta + 6 h vs baseline", "setting": "[3]; PEA 0.5% (alone or + Hydrocortisone/Betamethasone ED50)", "result": 0.135}, {"measurement": "Mean Left Ear Delta thickness, Delta + 6 h vs baseline", "setting": "[3]; PEA 1% (alone or + Hydrocortisone/Betamethasone ED50)", "result": "0.031*"}, {"measurement": "reducing ear thickness vs. Vehicle", "setting": "[3]; PEA 1% topical, 6 hours post sensitization", "result": "approximately 50%"}, {"measurement": "Mean Left Ear Delta thickness, Delta + 6 h vs baseline", "setting": "[3]; PEA 5% (alone or + Hydrocortisone/Betamethasone ED50)", "result": 0.062}, {"measurement": "Left Ear Thickness (mm) Study Day 0 (6 H post sensitization)", "setting": "[3]; topical 25 μl per ear 0.5 hour prior to sensitization, PEA 0.5% (alone or + Hydrocortisone 55 μg/25 μl or Betamethasone 1 μg/25 μl, ED50)", "result": 0.38, "unit": "mm"}, {"measurement": "Left Ear Thickness (mm) Study Day 0 (6 H post sensitization)", "setting": "[3]; topical 25 μl per ear 0.5 hour prior to sensitization, PEA 1% (alone or + Hydrocortisone 55 μg/25 μl or Betamethasone 1 μg/25 μl, ED50)", "result": "0.29±0.004 mm and 0.29 ** mm"}, {"measurement": "Left Ear Thickness (mm) Study Day 0 (6 H post sensitization)", "setting": "[3]; topical 25 μl per ear 0.5 hour prior to sensitization, PEA 5% (alone or + Hydrocortisone 55 μg/25 μl or Betamethasone 1 μg/25 μl, ED50)", "result": 0.32, "unit": "mm"}]}
{"smiles": "C[C@]12CCC(=O)C=C1CC[C@@H]1[C@@H]2[C@@H](O)C[C@@]2(C)[C@H]1CC[C@]2(O)C(=O)CO", "note": "[Hydrocortisone, hydrocortisone]", "values": [{"measurement": "ear swelling (difference between the inflamed and intact ear thickness)", "setting": "[1]", "result": "0.043±0.003", "unit": "mm"}, {"measurement": "% of Ear Thickness Inhibition (inhibition of ear swelling/edema vs Vehicle)", "setting": "[1]", "result": 40, "unit": "%"}, {"measurement": "Mean Group Ear Swelling (mm) 3 Hours Post Croton Oil MEAN", "setting": "[1]", "result": 0.243, "unit": "mm"}, {"measurement": "activity compared to vehicle in reducing ear thickness / ear edema", "setting": "[3]; 6 hours post sensitization, Hydrocortisone 55 and 200 μg/25 μl per ear, Betamethasone 1 and 4 μg/25 μl per ear (calculated ED50 and EDmax)", "result": "not active"}, {"measurement": "Mean Left Ear Delta thickness, Delta + 6 h vs baseline", "setting": "[3]; [4]", "result": 0.060}, {"measurement": "Mean Left Ear Delta thickness, Delta + 6 h vs baseline", "setting": "[3]; [5]", "result": 0.054}, {"measurement": "Left Ear Thickness (mm) Study Day 0 (6 H post sensitization)", "setting": "[3]; [6]", "result": 0.32, "unit": "mm"}, {"measurement": "Left Ear Thickness (mm) Study Day 0 (6 H post sensitization)", "setting": "[3]; [7]", "result": 0.31, "unit": "mm"}]}
{"smiles": "CC1(C)O[C@@H]2[C@@H](CO[C@@]3(COS(N)(=O)=O)OC(C)(C)O[C@@H]23)O1", "note": "[Topiramate, topiramate]", "values": [{"measurement": "% of Ear Thickness Inhibition (inhibition of ear swelling/edema vs Vehicle)", "setting": "[1]", "result": 63, "unit": "%"}, {"measurement": "Mean Group Ear Swelling (mm) 3 Hours Post Croton Oil MEAN", "setting": "[1]", "result": 0.243, "unit": "mm"}]}
{"smiles": "C[C@H]1C[C@H]2[C@@H]3CCC4=CC(=O)C=C[C@]4(C)[C@@]3(F)[C@@H](O)C[C@]2(C)[C@@]1(O)C(=O)CO", "note": "[Betamethasone, betamethasone]", "values": [{"measurement": "activity in inhibiting ear swelling vs. Vehicle", "setting": "[2]; 6 hours post sensitization", "result": "active"}, {"measurement": "activity in inhibiting ear swelling vs. Vehicle", "setting": "[2]; 9 hours post sensitization", "result": "not active"}, {"measurement": "Mean Left Ear Delta Thickness, Delta + 9 h vs baseline", "setting": "[2]", "result": "0.092#"}, {"measurement": "Mean Left Ear Delta thickness, Delta + 6 h vs baseline", "setting": "[2]", "result": "0.036**"}, {"measurement": "Mean Left Ear Thickness (mm) Day 0 (6 h post sensitization)", "setting": "[2]", "result": "0.27*** mm"}, {"measurement": "Mean Left Ear Thickness (mm) Day 0 (9 h post sensitization)", "setting": "[2]", "result": 0.33, "unit": "mm"}, {"measurement": "Mean Left Ear Delta thickness, Delta + 6 h vs baseline", "setting": "[3]; [4]", "result": 0.043}, {"measurement": "Mean Left Ear Delta thickness, Delta + 6 h vs baseline", "setting": "[3]; [5]", "result": "0.031*"}, {"measurement": "Left Ear Thickness (mm) Study Day 0 (6 H post sensitization)", "setting": "[3]; [6]", "result": "0.30±0.008", "unit": "mm"}, {"measurement": "Left Ear Thickness (mm) Study Day 0 (6 H post sensitization)", "setting": "[3]; topical, steroid alone at calculated ED50: Hydrocortisone 55 μg/25 μl per ear, Betamethasone 1 μg/25 μl per ear, listed as Beta.", "result": "0.30 * mm"}, {"measurement": "Left Ear Thickness (mm) Study Day 0 (6 H post sensitization)", "setting": "[3]; [7]", "result": "0.29±0.005", "unit": "mm"}, {"measurement": "Left Ear Thickness (mm) Study Day 0 (6 H post sensitization)", "setting": "[3]; topical, steroid alone at calculated EDmax: Hydrocortisone 200 μg/25 μl per ear, Betamethasone 4 μg/25 μl per ear, listed as Beta", "result": "0.29 ** mm"}]}
{"smiles": "O=C(NCCN1CCOCC1)c1ccc(Cl)cc1", "note": "[Moclobimide, moclobemide]", "values": [{"measurement": "% of Ear Thickness Inhibition (inhibition of ear swelling/edema vs Vehicle)", "setting": "[1]", "result": 52, "unit": "%"}, {"measurement": "Mean Group Ear Swelling (mm) 3 Hours Post Croton Oil MEAN", "setting": "[1]", "result": 0.265, "unit": "mm"}]}
{"smiles": "CN(C)CCC=C1c2ccccc2CCc2ccccc21", "note": "[Amitriptyline, amitriptyline]", "values": [{"measurement": "% of Ear Thickness Inhibition (inhibition of ear swelling/edema vs Vehicle)", "setting": "[1]", "result": 62, "unit": "%"}, {"measurement": "Mean Group Ear Swelling (mm) 3 Hours Post Croton Oil MEAN", "setting": "[1]", "result": "0.248* mm"}]}
